# From ChEMBL document CHEMBL1140789, “Sulfonate chalcone as new class voltage-dependent K+ channel blocker” (Bioorg Med Chem Lett, 2008)
# Target: Potassium voltage-gated channel subfamily A member 1 (Homo sapiens) (UniProt Q09470)
# Assay: Blockade of Kv1.1 channel over-expressed in CHO cells assessed as inhibition of delayed rectifying K+ current at 10 uM
# Type: cell-based
# Chain of Potassium voltage-gated channel subfamily A member 1 (Homo sapiens) (Q09470 whole entry): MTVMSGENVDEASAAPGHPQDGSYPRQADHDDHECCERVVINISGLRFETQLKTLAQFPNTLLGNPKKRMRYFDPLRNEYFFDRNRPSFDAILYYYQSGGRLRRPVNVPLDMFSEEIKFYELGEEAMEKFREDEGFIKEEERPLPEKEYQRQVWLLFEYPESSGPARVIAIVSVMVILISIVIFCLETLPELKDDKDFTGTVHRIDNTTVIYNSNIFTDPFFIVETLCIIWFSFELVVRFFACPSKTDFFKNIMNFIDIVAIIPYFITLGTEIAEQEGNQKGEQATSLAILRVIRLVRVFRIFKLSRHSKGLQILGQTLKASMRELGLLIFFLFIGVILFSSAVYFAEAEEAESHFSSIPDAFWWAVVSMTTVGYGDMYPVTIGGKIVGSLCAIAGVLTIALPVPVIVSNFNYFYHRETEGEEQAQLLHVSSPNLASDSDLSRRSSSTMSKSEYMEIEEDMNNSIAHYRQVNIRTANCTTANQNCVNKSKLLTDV
row,inhibition [%],SMILES
1,87.5,Nc1ccc(S(=O)(=O)Oc2cccc(C(=O)/C=C/c3ccc(O)cc3)c2)cc1

# Tested on: HEK293
# Assay: Blockade of human K+ channel in HEK293 cells assessed as inhibition of outward delayed rectifying K+ current at 10 uM
# Type: cell-based
row,SMILES,inhibition [%]
1,O=C(/C=C/c1ccccc1)c1ccccc1 [CHALCONE],24.2
2,"O=C(/C=C/c1ccc(O)cc1)c1ccc(O)cc1 [4,4'-DIHYDROXYCHALCONE]",28.2

# Target: Potassium voltage-gated channel subfamily A member 6 (Homo sapiens) (UniProt P17658)
# Assay: Blockade of Kv1.6 channel over-expressed in CHO cells assessed as inhibition of delayed rectifying K+ current at 10 uM
# Type: cell-based
# Chain of Potassium voltage-gated channel subfamily A member 6 (Homo sapiens) (P17658 whole entry): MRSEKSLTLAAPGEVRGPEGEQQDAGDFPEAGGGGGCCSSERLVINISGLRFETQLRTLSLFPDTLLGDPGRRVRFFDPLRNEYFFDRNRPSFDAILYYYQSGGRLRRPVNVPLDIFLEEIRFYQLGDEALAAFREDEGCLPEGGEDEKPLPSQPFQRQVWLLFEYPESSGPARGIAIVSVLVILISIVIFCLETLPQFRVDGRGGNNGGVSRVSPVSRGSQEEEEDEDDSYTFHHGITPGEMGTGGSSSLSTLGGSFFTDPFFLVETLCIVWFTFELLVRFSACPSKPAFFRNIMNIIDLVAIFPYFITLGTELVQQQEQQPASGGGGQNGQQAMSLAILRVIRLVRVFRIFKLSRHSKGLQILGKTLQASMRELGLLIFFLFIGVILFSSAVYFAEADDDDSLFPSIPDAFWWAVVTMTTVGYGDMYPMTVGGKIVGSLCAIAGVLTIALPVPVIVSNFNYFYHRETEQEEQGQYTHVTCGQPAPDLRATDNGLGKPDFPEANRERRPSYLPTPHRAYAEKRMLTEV
row,inhibition [%],SMILES
1,44.2,Nc1ccc(S(=O)(=O)Oc2cccc(C(=O)/C=C/c3ccc(O)cc3)c2)cc1

# Target: Potassium voltage-gated channel subfamily A member 3 (Homo sapiens) (UniProt P22001)
# Assay: Blockade of Kv1.3 channel over-expressed in CHO cells assessed as inhibition of delayed rectifying K+ current at 10 uM
# Type: cell-based
# Chain of Potassium voltage-gated channel subfamily A member 3 (Homo sapiens) (P22001 whole entry): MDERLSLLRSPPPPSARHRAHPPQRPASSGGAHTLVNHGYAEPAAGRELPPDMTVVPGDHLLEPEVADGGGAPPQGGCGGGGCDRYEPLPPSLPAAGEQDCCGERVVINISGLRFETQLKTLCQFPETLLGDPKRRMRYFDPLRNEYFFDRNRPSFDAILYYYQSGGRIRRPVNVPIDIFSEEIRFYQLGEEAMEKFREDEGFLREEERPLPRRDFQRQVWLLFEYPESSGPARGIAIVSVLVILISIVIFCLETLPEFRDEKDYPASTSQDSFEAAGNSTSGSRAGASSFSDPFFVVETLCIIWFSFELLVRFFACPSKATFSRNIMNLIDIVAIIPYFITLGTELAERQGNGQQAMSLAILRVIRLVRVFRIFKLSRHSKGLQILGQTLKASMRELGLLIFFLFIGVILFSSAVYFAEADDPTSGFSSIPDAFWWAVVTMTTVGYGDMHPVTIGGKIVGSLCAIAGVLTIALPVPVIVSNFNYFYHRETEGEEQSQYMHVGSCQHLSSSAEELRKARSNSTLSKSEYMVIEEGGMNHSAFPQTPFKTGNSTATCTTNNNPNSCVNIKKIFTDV
row,inhibition [%],SMILES
1,20.6,Nc1ccc(S(=O)(=O)Oc2cccc(C(=O)/C=C/c3ccc(O)cc3)c2)cc1

# Target: Potassium voltage-gated channel subfamily A member 2 (Homo sapiens) (UniProt P16389)
# Assay: Blockade of Kv1.2 channel over-expressed in CHO cells assessed as inhibition of delayed rectifying K+ current at 10 uM
# Type: cell-based
# Chain of Potassium voltage-gated channel subfamily A member 2 (Homo sapiens) (P16389 whole entry): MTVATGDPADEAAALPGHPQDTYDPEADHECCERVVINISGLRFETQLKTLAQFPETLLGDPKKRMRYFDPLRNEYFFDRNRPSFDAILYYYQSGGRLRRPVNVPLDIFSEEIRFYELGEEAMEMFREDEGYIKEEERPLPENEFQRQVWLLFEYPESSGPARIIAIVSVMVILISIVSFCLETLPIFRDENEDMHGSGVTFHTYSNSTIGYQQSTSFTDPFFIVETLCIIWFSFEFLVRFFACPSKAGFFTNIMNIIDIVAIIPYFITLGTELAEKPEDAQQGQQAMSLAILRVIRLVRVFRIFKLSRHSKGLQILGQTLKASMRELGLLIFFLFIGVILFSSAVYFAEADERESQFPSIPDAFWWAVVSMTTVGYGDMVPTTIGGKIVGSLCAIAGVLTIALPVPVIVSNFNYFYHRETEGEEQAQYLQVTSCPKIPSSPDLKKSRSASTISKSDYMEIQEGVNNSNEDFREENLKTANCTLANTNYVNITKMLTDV
row,inhibition [%],SMILES
1,87.4,Nc1ccc(S(=O)(=O)Oc2cccc(C(=O)/C=C/c3ccc(O)cc3)c2)cc1

# Tested on: not listed separately
# Assay: Blockade of human K+ channel in HEK293 cells assessed as inhibition of outward delayed rectifying K+ current
# Type: cell-based
row,SMILES,IC50 [µM]
1,O=C(/C=C/c1ccccc1)c1ccc(O)cc1 [4'-HYDROXYCHALCONE],> 50
2,O=C(/C=C/c1ccc(OS(=O)(=O)c2ccc(F)cc2)cc1)c1ccccc1,> 50
3,CC(=O)Nc1ccc(S(=O)(=O)Oc2ccc(C(=O)/C=C/c3ccc(O)cc3)cc2)cc1,> 10
4,Cc1ccc(S(=O)(=O)Oc2ccc(/C=C/C(=O)c3ccc(O)cc3)cc2)cc1,> 50
5,Nc1ccc(S(=O)(=O)Oc2ccc(C(=O)/C=C/c3ccccc3)cc2)cc1,0.85
6,Nc1ccc(S(=O)(=O)Oc2ccc(C(=O)/C=C/c3ccc(O)cc3)cc2)cc1,1.1
7,Cc1ccc(S(=O)(=O)Oc2ccc(/C=C/C(=O)c3ccccc3)cc2)cc1,> 50
8,Nc1ccc(S(=O)(=O)Oc2cccc(C(=O)/C=C/c3ccc(O)cc3)c2)cc1,0.51

# Further lines, results first:
row,IC50 [µM],SMILES
1,2.4,O=C(/C=C/c1ccc(O)cc1)c1ccc(OS(=O)(=O)c2ccccc2)cc1
2,10.7,O=C(/C=C/c1ccc(O)cc1)c1ccc(OS(=O)(=O)c2ccc([N+](=O)[O-])cc2)cc1
3,> 50,O=C(/C=C/c1ccc(OS(=O)(=O)c2ccccc2)cc1)c1ccccc1
4,1.6,Cc1ccc(S(=O)(=O)Oc2ccc(C(=O)/C=C/c3ccc(O)cc3)cc2)cc1
5,> 50,O=C(/C=C/c1ccccc1)c1ccccc1 [CHALCONE]
6,> 50,"O=C(/C=C/c1ccc(O)cc1)c1ccc(O)cc1 [4,4'-DIHYDROXYCHALCONE]"
7,> 50,O=C(/C=C/c1ccc(O)cc1)c1ccccc1 [4-HYDROXYCHALCONE]
8,2.7,O=C(/C=C/c1ccc(O)cc1)c1ccc(OS(=O)(=O)c2ccc(F)cc2)cc1
9,> 10,COc1ccc(/C=C/C(=O)c2ccc(OS(=O)(=O)c3ccc(C)cc3)cc2)cc1
